Test system: Aspergillus niger (ATCC #6275)
Assay: EUCAST 96-well plate fungal growth inhibition (MIC)
Format: cell-based
Set-up: key to growth of Aspergillus niger in 96-well plates: (+) in each block indicates growth; (−) indicates no growth, i.e., the inhibitor was effective
Conditions: for MIC: Aspergillus niger ATCC 6275, 3 days at 35° C.
Procedure: (A) 0.17 g of 60% DPAB aqueous solution (ProTek® PBT or Polymeric Betaine EP or Polymeric Betaine Technical Grade Active Ingredient Wood Preservative, Troy Chemical Corporation, Newark, N.J.) was diluted in 9.83 g ethanol by stirring to form a concentrate containing 1% DPAB.
(B) 0.25 g of 40% IPBC solvent solution (Polyphase® AF-1, Troy Chemical Corporation, Newark, N.J.) was diluted in 9.75 g ethanol by stirring to form a concentrate containing 1% IPBC.
(C) 21.04 g of 60% DPAB aqueous solution (ProTek® PBT or Polymeric Betaine EP or Polymeric Betaine Technical Grade Active Ingredient Wood Preservative, Troy Chemical Corporation, Newark, N.J.), 6.25 g of 40% IPBC solvent solution (Polyphase AF-1, Troy Chemical Corporation, Newark, N.J.) and 22.74 g of ethanol were mixed and stirred. The resulting concentrate contained 25% polymeric betaine and 5% IPBC. The weight ratio of polymeric betaine to IPBC was 5:1. 0.33 g of this IPBC/polymeric betaine concentrate was diluted in 9.67 g of ethanol to form a use-dilution containing about 0.83% DPAB and 0.17% IPBC.
Solutions prepared as described above were tested in 96-well plates for their ability to inhibit fungal growth. The solutions were tested according to the EUCAST methodology as described in Rodriguez-Tudela et al. 2006 “Antifungal susceptibility testing in Aspergillus spp. according to EUCAST methodology,” the contents of which are incorporated by reference herein. The solutions were checked for inhibition against fungal organisms Aspergillus niger (ATCC #6275), Aureobasidium pullulans (ATCC #9348), Penicillium funiculosum (ATCC #11797) and Trichoderma pseudokoningii (ATCC #26801). This method is described below:
(1) Prepared preservative test wells by adding 2 microliters of each 1% preservative solution formulation to 198 microliters of 2xRPMI-MOPS-2% Glucose in each column “1” in duplicate.
(2) Added 100 microliters of 2xRPMI-MOPS-2% Glucose to the remaining columns.
(3) Performed 2-fold dilutions down the columns to column “12”.
(4) Prepared suspension of microorganisms from a 3-5 day old PDA slants by flooding slant with 1 mL deionized water and 0.1% Tween-20.
(5) Suspension strength was determined via hemocytometer then adjusted to 1×10^6 spores/mL with sterile deionized water.
(6) Added 100 microliters of the microorganism suspension to all wells except for sterility (−) controls containing test media. The water used to prepare the fungal suspensions was added to sterility (−) control wells.
(7) The inoculated 96-well plates were incubated for 3 days at 35° C.
(8) After incubation, fungal growth was evaluated by visual growth in test wells. Minimum inhibitory concentration (MIC) is recorded in ppm and defined as the lowest concentration of fungicide that produces no visual changes in turbidity in the test wells. (+) in each block indicates growth and (−) indicates no growth, i.e., the inhibitor was effective.
(9) The experiment is only considered valid if growth is observed in the positive (+) control wells and no growth is observed in the negative control wells.
In order to show more directly the possible synergy in the invention, the results are presented by applying the Synergy Index (S.I.). Minimal inhibitory concentration of the composition of this invention (mixture of DPAB and IPBC) are analyzed using the following equation:
MCA=Concentration of compound A in parts per million, acting alone, which prevents fungal growth at the reference point
MCA′=Concentration of compound A in parts per million, in the mixture, which prevents fungal growth at the reference point
MCB=Concentration of compound B in parts per million, acting alone, which prevents fungal growth at the reference point
MCB′=Concentration of compound B in parts per million, in the mixture, which prevents fungal growth at the reference point
When SI is greater than 2, antagonism is indicated. […] When SI is between 0.5 and 2, the action of biocides is additive.

Molecule	MIC [ppm]	growth of Aspergillus niger in 96-well plates (well 1, 50.0 ppm active)	growth of Aspergillus niger in 96-well plates (well 2, 25.0 ppm active)	growth of Aspergillus niger in 96-well plates (well 3, 12.5 ppm active)	growth of Aspergillus niger in 96-well plates (well 4, 6.25 ppm active)	growth of Aspergillus niger in 96-well plates (well 5, 3.13 ppm active)	growth of Aspergillus niger in 96-well plates (well 6, 1.56 ppm active)	growth of Aspergillus niger in 96-well plates (well 7, 0.78 ppm active)	growth of Aspergillus niger in 96-well plates (well 8, 0.39 ppm active)	growth of Aspergillus niger in 96-well plates (well 9, 0.20 ppm active)	growth of Aspergillus niger in 96-well plates (well 10, 0.10 ppm active)	growth of Aspergillus niger in 96-well plates (well 11, 0.05 ppm active)	growth of Aspergillus niger in 96-well plates (well 12, 0.02 ppm active)
CCCCNC(=O)OCC#CI [IPBC, 3-iodo-2-propynyl butyl carbamate]	0.78	−	−	−	−	−	−	−	+	+	+	+	+
didecyl bis(hydroxyethyl) ammonium borate [DPAB]	12.50	−	−	−	+	+	+	+	+	+	+	+	+

Reference: US20220161456A1, “S[…] PRESERVATIVE COMPOSITION COMPRISING POLYMERIC BETAINE AND CARBAMATE” (Troy Corporation, priority 2019, published 2022)
